Patent EP0182135A2, “Novel bis-(substituted amino) anthraquinones” (AMERICAN CYANAMID COMPANY, priority 1984, dated 1986)

Experiments:
[1] = tested on: lymphocytic leukemia P388; experiment: Lymphocytic Leukemia P388 Test; assay type: in vivo, DBA/2 mice
Experimental: Lymphocytic Leukemia P388 Test
The animals used were DBA/2 mice all of one sex, weighing a minimum of 17 g and all within a 3 g weight range. There were 5 or 6 animals per test group. The tumor transplant was by intraperitoneal injection of 0.1 ml of dilute ascitic fluid containing 10^6 cells of lymphocytic leukemia P388. The test compounds were administered intraperitoneally on days 1, 5 and 9 (relative to tumor inoculation) at various doses. The animals were weighed and survivors were recorded on a regular basis for 30 days. The median survival time and the ratio of survival time for treated (T)/control (C) animals were calculated. The positive control compound was 1,4-dihydroxy-5,8-bis--[ [2-(2-hydroxyethylamino)ethyl ]amino]anthraquinone, dihydrochloride (U.S. Patent 4,197,249) given at the indicated doses by injection.

melanotic melanoma B16 = experiment: Melanotic Melanoma B16 Test; assay type: in vivo, C57BC/6 mice
Experimental: The animals used were C57BC/6 mice, all of the same sex, weighing a minimum of 17 g and all within a 3 g weight range. There were normally 10 animals per test group. A 1.0 g portion of melanotic melanoma B16 tumor was homogenized in 10 ml of cold balanced salt solution and a 0.5 ml aliquot of the homogenate was implanted intraperitoneally into each of the test mice. The test compounds were administered intraperitoneally on days one through nine (relative to tumor inoculation) at various doses. The animals were weighed and survivors recorded on a regular basis for 60 days. The median survival time and the ratio of survival time for treated (T)/control (C) animals were calculated. The positive control compound was 1,4-dihydroxy-5,8-bis[[2-(2-hydroxyethylamino)-ethyl]amino]anthraquinone, dihydrochloride (U.S. Patent 4,197,249) given at the indicated doses by injection.

[2] = Dose 0.8 mg/kg intraperitoneally on days 1, 5 and 9
[3] = Dose 3 mg/kg intraperitoneally on days 1, 5 and 9
[4] = Dose 12 mg/kg intraperitoneally on days 1, 5 and 9
[5] = Dose 50 mg/kg intraperitoneally on days 1, 5 and 9
[6] = Dose 200 mg/kg intraperitoneally on days 1, 5 and 9
[7] = Dose 0.8 mg/kg intraperitoneally on days one through nine
[8] = Dose 3 mg/kg intraperitoneally on days one through nine
[9] = Dose 12 mg/kg intraperitoneally on days one through nine
[10] = Dose 50 mg/kg intraperitoneally on days one through nine

CC(=O)OCCN(CCNc1ccc(NCCN(CCOC(C)=O)C(C)=O)c2c1C(=O)c1c(O)ccc(O)c1C2=O)C(C)=O [N,N'-[5,8-Dihydroxyl,4-anthraquinonylene-bis(imino-ethylene)]bis[N-2-hydroxyethylacetamide-2,2'diacetate]]
Median Survival [1, 2]: 11 days
T/C x 100 (%) [1, 2]: 116%
Median Survival [1, 3]: 10 days
T/C x 100 (%) [1, 3]: 105%
Median Survival [1, 4]: 14 days
T/C x 100 (%) [1, 4]: 147%
Median Survival [1, 5]: 16 days
T/C x 100 (%) [1, 5]: 168%
Median Survival [1, 6]: 17 days
T/C x 100 (%) [1, 6]: 179%
Median Survival (melanotic melanoma B16; [7]): 21.5 days
T/C x 100 (%) (melanotic melanoma B16; [7]): 106%
Median Survival (melanotic melanoma B16; [8]): 21.5 days
T/C x 100 (%) (melanotic melanoma B16; [8]): 106%
Median Survival (melanotic melanoma B16; [9]): 20.5 days
T/C x 100 (%) (melanotic melanoma B16; [9]): 101%
Median Survival (melanotic melanoma B16; [10]): 21.5 days
T/C x 100 (%) (melanotic melanoma B16; [10]): 106%
